Where two headings read alike, the source gives them in different places.

Data set [1] relates to mechanical allodynia in the ipsilateral hindpaw of CCI rats. The experiment in a line: Sciatic nerve chronic constriction injury (CCI) model, mechanical allodynia (von Frey filaments), with isobolographic analysis. The class given is in vivo, rat (Sprague Dawley). As to conditions: for MPE, mechanical allodynia: day 14 post-CCI; for ED50: Rattus norvegicus. The source says: (§1) The favorable results at a single dose in phase II of this algesymmetric test provide evidence that allows us to move towards a neuropathic pain model to study the possible combination at repeated doses. […] The CCI model has a high sensitivity (88%) for the prediction of efficacy in controlled clinical trials (Kontinen, V K and Meert, T F 2003. In: Dostrovsky, J O, Carr, D B, Koltzenburg, M. editors. the 10th World Congress on Pain, Seattle: IASP Press, p. 489-98). Once the model was reproduced, the threshold of removal of the injured hindpaw was measured by the stimulation with the von Frey filaments (mechanical allodynia) and by the stimulation with an electronic von Frey (mechanical hypernociception). The measurements were performed under baseline conditions and at 7 days post-CCI (hyperalgesic peak in the model), at which time the experimental groups were conformed (n=6-7 per group) to proceed with the dose-response curve study of amitriptyline. In this way, establish the ED30 or ED50 depending on the % of maximum possible effect (MPE) produced by the drug to reduce each of the sensory symptoms of neuropathic pain reproduced by the model (Jensen, T S and Baron, R. 2003. Pain 102: 1-8). Gabapentin, a common drug in its treatment, was used as a reference. CCI-vehicle group (distilled water 10 mL/kg, p.o.), amitriptyline groups (0.5, 1.5, 3, 10 mg/kg, p.o., AMT), gabapentin group (50 mg/kg, p.o., GBP); Sham CCI Group (distilled water 10 mL/kg, p.o.) The daily supply was given at repeated doses for 7 days until 14 days post-CCI, at which time another evaluation of the variables was performed. […] The experimental groups were formed for the dose-response curve study of paracetamol: CCI-vehicle group (distilled water 10 mL/kg, p.o.), Paracetamol groups (25, 50, 100, 200 mg/kg, p.o., P), Gabapentin group (50 mg/kg, p.o., GBP), CCI Sham Group (distilled water 10 mL/kg, p.o.). These doses of paracetamol have not been associated with liver or kidney damage in rats. […] To execute the dose-response curve mapping, the withdrawal thresholds after the treatments were converted into % of MPE. [Mechanical allodynia: MPE %=(post-treatment threshold−pre-treatment threshold)/(15 g-pre-treatment threshold)×100; Mechanical hypernociception: MPE % (Δ g post-treatment−Δ g pre-treatment)/50−Δ g pre-treatment)×100]. Subsequently, the same design was executed with the four doses of the combination calculated from the theoretical effective dose of each drug, this was calculated for each variable depending on the ED50 or ED30 according to the drug's capacity to obtain 50% or more of MPE that is 100% assumed as the total suppression of mechanical allodynia and mechanical hypernociception induced by CCI. […] In addition, concerning to the hypernociception intensity, the MPE values: 0.5 mg/kg=2.55%, 1.5 mg/kg=16.07% (p<0.05), 3 mg/kg=35.43% (p<0.001), 10 mg/kg=44.95% (p<0.001) vs GBP 50 mg/kg=63.47% (p<0.001), ED30=3.1032 (FIG. 8B). Amitriptyline inhibited both alterations of nociceptive processing but the potency of its effect was in the following order: mechanical allodynia>mechanical hypernociception. In neuropathic pain models there are controversies regarding the observation of the mechanical antiallodynic effect of amitriptyline. […] The result was similar in the model of spared neural injury (SNI), instead it reversed the responses to stimuli induced by chemical irritants induced by ATP and capsaicin, stimuli that are transmitted by the C fibers that express P2X and TRPV1 receptors and that are also involved in the transmission of thermal stimuli.

Data set [2] deals with mechanical hypernociception in the ipsilateral hindpaw of CCI rats. The experiment in a line: Sciatic nerve chronic constriction injury (CCI) model, mechanical hypernociception (electronic von Frey). To be noted: for MPE, intensity of mechanical hypernociception: day 14 post-CCI; for ED30, mechanical hypernociception: oral repeated doses, CCI rats, unit not given. The class given is in vivo, rat (Sprague Dawley).
Description: as §1

In data set [3] the test system is CCI-induced Wallerian degeneration-related changes in rat sciatic nerve. The experiment in a line: Histopathological study of sciatic nerve sections (Wallerian degeneration) in CCI rats. As to conditions: GBP as positive control, 14 days post-CCI.
Data set [4] has as its system licking/biting behavior after injection of 2.5% formalin in the plantar surface of the rat's paw. Put plainly: Formalin test (persistent pain model), licking/biting behavior, with isobolographic analysis. The class given is in vivo, rat (Sprague Dawley). To be noted: for percentage of inhibition of phase II (% antinociception) / ED30 for the inhibition of phase II (experimental): single dose; for percentage of inhibition of phase II (% antinociception): 2.5% formalin; for Oral administration ED30: formalin test, dose producing 30% reduction of control response, mean ± SD of the estimate; for ED30 for the inhibition of phase II (experimental): oral, phase II of formalin test, unit not given. The source says:
In the present invention referred to the combination paracetamol:amitriptyline, the pharmacodynamic rationality was based on the knowledge of the actions of both drugs on the nociceptive pathways considering the multiple sites and mechanisms operating on specific targets, as well as their adverse effects and pharmacokinetic variables. […] This responds to the need for the use of integral systems in which peripheral activity, spinal transmission, modulating systems and suprasegmental systems of the active global network that leads to the perception of pain can interact (Raffa, R B et al., 2010. J Pain 11: 701-709). The experiments were designed in young rats (8-10 weeks, Sprague Dawley, males, 168-240 g, CENPALAB, Havana, Cuba) and divided into several groups n=6-7 each, which received increasing doses of both drugs independent and combinations, to evaluate the effect as a percentage (%) of antinociception at single doses in the formalin test compared to the vehicle-treated group. This test is considered a standard persistent pain model for the study of animal nociception, widely used (Okuda, K. et al., 2001. Pain 92: 107-15). A biphasic nociceptive behavior has been described in this test, the first phase or nociceptive is interpreted as a consequence of the direct activation of the peripheral endings of the nociceptors by the chemical irritant. While the second, tonic or late phase is interpreted as the result of the acute inflammatory response, as well as the peripheral and central sensitization produced by the sustained activation of C fibers (Coderre, T J et al., 1990. Brain Res. 535: 155-8). This phase mimics the changes in synaptic plasticity that occur during persistent pain that could progress to chronicity, which is why it received the greatest attention in our experiments. The period between the two phases of the response is identified as a phase of latency in which the activity diminishes or practically ceases, this effect being attributed to the participation of the mechanisms of central endogenous pain modulation (Dubuisson, D. and, Dennis, S G 1977. Pain 4: 161-74; Omote, K. et al., 1998. Brain Res. 814: 194-8). The time course of the antinociceptive response to individual drugs and combinations was constructed by mapping the mean time of the licking/biting as a function of the time of each phase. These values were transformed into percentage of antinociception that express the percentage of inhibition of the behavior with respect to the control of the particular phase according to the formula: % antinociception=((x−x1)/x)*100. Where X=average time of licking/bite of the control group treated with vehicle, X1=time of licking/biting of each animal of the experimental group (for phase I licking time in 5 minutes, for phase II average of the time of 15 to 45 minutes per animal). In the case that X1 was greater than X, a value of 0 was assigned to % antinociception. A value close to 0% means that the behavior is similar to that of the control group and a value close to 100% means that there was no nocidefensive behavior (Argelles, C. F. et al., 2002. Anesthesiology 96: 921-5). The antihyperalgesic effect of amitriptyline has been recognized in neural damage conditions. […] One of the proposals to explain these discrepancies has been the ability of amitriptyline to increase serotonergic signaling, which has multiple subtypes of receptors, some low and others with high affinity, with heterogeneous and even opposite actions distributed at different levels of the nociceptive pathways. […] However, 5-HT2A and 5-HT3, 5-HT4 and 5-HT7 localized pre-synaptically facilitate it. […] As a consequence, the most integrated licking/biting behavior was recorded and doses of amitriptyline (0.1, 1, 3, 10 mg/kg, p.o., AMT) were used for the dose-response curve study (FIG. 1). […]

Data set [5] in a line: Behavioral safety pharmacological tests (rota-rod, tone, posture, righting reflex, general state). The class given is in vivo, rat (Sprague Dawley). As to conditions: repeated minor doses (0.5-10 mg/kg p.o.) in the CCI model.
Description: The rotating rod or rota-rod test was executed. The apparatus consists of a bar with a diameter of 2.5 cm divided into 4 compartments. The bar rotated at a constant speed of 22 rpm and the time it took for the animals to fall from the bar was evaluated. The animals were evaluated 1 h after the supply. The cut-off time used was 60 seconds. In addition, the tone, posture, righting reflex, corneal, vital signs and general state of the animal were explored from 30 minutes to 3 hours post-administration of the drugs separately and the combination. The corneal and tympanic reflex were explored by the tip of a thin paper to stimulate the cornea or auditory canal and the rapid response of opening and closing of the eyes or the mobilization of the ears in normal animals was observed. The evaluation of the posture and the righting reflex was based on the scale of Devor and Zalkind. Scale for posture: 0=normal posture, grooming supported on its hind legs; 1=moderate atony and ataxia, supports its weight, but can not rest on its hind legs; 2=supports its weight, but ataxia is severe; 3=maintains muscle tone, but can not support its weight, only small movements of intention; 4=atony, flaccidity, totally immobilized, no efforts to mobilize.
Setting [6] is: 100 mg/kg p.o. daily for 7 days.
[7] abbreviates: 200 mg/kg p.o. daily for 7 days.
Where [8] appears, read: po, CCI model, dose producing 50% reduction of control response, table values mean ± SD of the estimate, read-out: Oral administration ED50 (antiallodynic, experimental).
Where [9] appears, read: oral repeated doses, CCI rats, unit inferred, read-out: ED50, mechanical allodynia.
[10] abbreviates: 0.5 mg/kg p.o. daily for 7 days.
Setting [11] is: 1.5 mg/kg p.o. daily for 7 days.

Turning to `NCC1(CC(=O)O)CCCCC1` [GBP, gabapentin], the “MPE, mechanical allodynia” value in data set [1] (50 mg/kg p.o. daily for 7 days) is 60.66%. Further, the “MPE, intensity of mechanical hypernociception” value (“MPE, intensity” below) in data set [2] (50 mg/kg p.o. daily for 7 days) worked out at 63.47%. The “Wallerian degeneration alterations in sciatic nerve (qualitative)” value in data set [3] was “show a decrease in these alterations”.
Take `CC(=O)Nc1ccc(O)cc1` [Paracetamol, paracetamol]: the “percentage of inhibition of phase II (% antinociception)” value in data set [4] (50 mg/kg p.o., phase II) turned out to be 38.08%; in data set [4] (100 mg/kg p.o., phase II), 65.73%; in data set [4] (200 mg/kg p.o., phase II), 74.24%; in data set [4] (300 mg/kg p.o., phase II), 87.78%. Besides, the “effect on phase I of the formalin test” value in data set [4] (300 mg/kg p.o. (printed 'the dose higher than 300 mg/kg')) was “significantly reduced phase I”. Also, the “effect on phase II of the formalin test” value in data set [4] (all doses used: 50, 100, 200, 300 mg/kg p.o.) was “significantly reduced phase II”. Besides, in data set [4], the “Oral administration ED30” value is 32.35 ± 7.85 mg/kg. Further, the “ED30 for the inhibition of phase II (experimental)” value in data set [4] was found to be 32.3578. In addition, the “MPE, mechanical allodynia” value in data set [1] (25 mg/kg p.o. daily for 7 days) came to 25.65%; in data set [1] (50 mg/kg p.o. daily for 7 days), 60.96%; in data set [1] (setting [6]), 75.49%; in data set [1] (setting [7]), 75.45%. Moreover, the values for the ED50 in data set [1] (setting [8]) and in data set [1] (setting [9]) were 47.5 ± 14.1 mg/kg and 47.5 mg/kg, respectively. For the same molecule, in data set [1] (doses 25, 50, 100, 200 mg/kg p.o., repeated 7 days (p<0.05)), the antiallodynic effect entry is recorded as “significant antiallodynic effect from doses of 50 mg/kg”. The “MPE, intensity” value in data set [2] (25 mg/kg p.o. daily for 7 days) is 31.79%; in data set [2] (50 mg/kg p.o. daily for 7 days), 35.05%; in data set [2] (setting [6]), 42.42%; in data set [2] (setting [7]) it was 48.37%. Further, in data set [2] (25, 50, 100 (p<0.01) and 200 mg/kg (p<0.001) p.o., similar to GBP), the mechanical antihypernociceptive effect result was “mechanical antihypernociceptive effect in a dose-dependent manner”. Moreover, the “efficacy to reduce the intensity of mechanical hypernociception, 300 mg/kg versus 200 mg/kg” value in data set [2] (doses of 300 mg/kg compared with 200 mg/kg) is listed as “less efficacy”. In data set [2], the “ED30, mechanical hypernociception” value is listed as 22.5725.
As for `CN(C)CCC=C1c2ccccc2CCc2ccccc21` [Amitriptyline, amitriptyline], the “percentage of inhibition of phase II (% antinociception)” value in data set [4] (0.1 mg/kg p.o., phase II (15-45 min)) is on record as −11.38%; in data set [4] (1 mg/kg p.o., phase II), 57.35%; in data set [4] (3 mg/kg p.o., phase II) it was 55.56%; in data set [4] (10 mg/kg p.o., phase II), 62.24%. The “inhibitory effect on phases of the formalin test” value in data set [4] (doses 0.1, 1, 3, 10 mg/kg p.o.) was “significant inhibitory effect was observed exclusively on phase II”. For the same molecule, in data set [4] (doses of 20, 25, 50 and 100 mg/kg), the “licking/biting response in both phases” value was “a significant dose-dependent inhibitory response pattern was not observed”. The “Oral administration ED30” value in data set [4] is reported as 0.66 ± 0.41 mg/kg. Also, in data set [4], the “ED30 for the inhibition of phase II (experimental)” value was determined as 0.6677. In addition, the “MPE, mechanical allodynia” value came out at 0.96% in data set [1] (setting [10]), 1.31% in data set [1] (setting [11]), 58.75% in data set [1] (3 mg/kg p.o. daily for 7 days) and 65.97% in data set [1] (10 mg/kg p.o. daily for 7 days). The ED50 in data set [1] (setting [8]) is 4.54 ± 2.28 mg/kg; in data set [1] (setting [9]) it was 4.54 mg/kg. In addition, the “withdrawal thresholds of the damaged paw to von Frey filaments stimulation” value in data set [1] (doses of 3 and 10 mg/kg p.o., repeated 7 days (p<0.05)) was “increased the withdrawal thresholds”. Besides, in data set [5], the “signs of sedation or catalepsy” value is “no signs of sedation or catalepsy”. Besides, the “MPE, intensity” value in data set [2] (setting [10]) was found to be 2.55%; in data set [2] (setting [11]), 16.07%; in data set [2] (3 mg/kg p.o. daily for 7 days), 35.43%; in data set [2] (10 mg/kg p.o. daily for 7 days), 44.95%. In data set [2] (dose of 1.5 (p<0.01), 3 and 10 mg/kg (p<0.001) p.o., repeated 7 days), the “intensity of mechanical hypernociception” value is “significantly reduced the intensity of mechanical hypernociception”. For the same molecule, in data set [2], the “ED30, mechanical hypernociception” value came to 3.1032.

The record behind these values is patent publication US11590091B2, “Fixed dose composition of paracetamol: amitriptyline and method for the treatment of mixed cancer pain” (CENTRO DE INVESTIGACIÓN Y DESARROLLO DE MEDICAMENTOS CIDEM, priority 2018, dated 2023).
